These results are taken from US4703047A, “1-Cyclopropyl-1,4-dihydro-4-oxo-7-(4-(2-oxo-1,3-dioxol-4-yl- methyl)-1-piperazinyl)-3-quinolinecarboxylic acid antibacterial agents” (Bayer Aktiengesellschaft, priority 1985, dated 1987).

In brackets after ≈: the same amount, converted by molar mass. Where only a bound is given, the exact number is not on record here.

Common to all, as to experiment: MIC, agar dilution test/Isosensitest agar
Common to all, as to conditions: unit assumed
On the technique in general: In agar dilution, organisms are placed on agar that contains the substance at set levels.

One test concerns E. coli Neumann. The test is classed as cell-based, Escherichia coli. The text has this:
(§1) |(agar dilution test/Isosensitest agar)

A further test has as its system Staphylococcus FK 422. The test is classed as cell-based.
Text: as §1

A further test deals with Klebsiella 8085. The test is classed as cell-based.
Text: as §1

The next test concerns Proteus vulgaris 1017. The test is classed as cell-based.
Text: as §1

Another test deals with Serratia 16040. The test is classed as cell-based.
Text: as §1

In the next test the test system is Providencia 12012. The test is classed as cell-based.
Text: as §1

For the next test, the system named is Streptococcus 27101. The test is classed as cell-based.
Text: as §1

The test system of a further test is Pseudomonas Ellsworth. The test is classed as cell-based.
Text: as §1

By MIC is commonly meant the least concentration at which growth counts as inhibited. High values mean weaker potency, low ones greater potency. For `Cc1oc(=O)oc1CN1CCN(c2cc3c(cc2F)c(=O)c(C(=O)O)cn3C2CC2)CC1` [Example 1, 1-Cyclopropyl-6-fluoro-1,4-dihydro-7-[4-(5-methyl-2-oxo-1,3-dioxol-4-yl-methyl)-1-piperazinyl]-4-oxo-3-quinolinecarboxylic acid], the MIC in the test with E. coli Neumann was at most 0.015 µg/mL; with Staphylococcus FK 422, 0.25 µg/mL (≈ 0.564 µM); in the test with Klebsiella 8085, at most 0.015 µg/mL; against Proteus vulgaris 1017, at most 0.015 µg/mL; with Serratia 16040, 8 µg/mL (≈ 18 µM); in the test with Providencia 12012 it was 0.03 µg/mL (≈ 0.0677 µM). The minimal inhibitory concentration (MIC) is 0.5 µg/mL (≈ 1.13 µM) in the test on Streptococcus 27101 and 0.06 µg/mL (≈ 0.135 µM) in the test with Pseudomonas Ellsworth.
